Patent US20020151563A1, “Farnesyl transferase inhibitors in combination with HMG CoA reductase inhibitors for the inhibition of abnormal cell growth” (Pfizer Inc., priority 2001, published 2002)

Tested on: NIH-3T3 tranfectant overexpressing mutant K-ras 4B
Experiment: Prenylation of K-ras 4B in intact cells (anti-Pan-ras immunoblot, densitometric scanning)
Type: cell-based
Details: 72 hours at 37° C.; 0, 1.0, 5.0, 10.0 and 25 μm FTase inhibitor in the presence versus absence of 5,M of hydrolysed lovastatin
Description: The effectiveness of the FTase inhibitor 6-[(4-chloro-phenyl)-hydroxy-(3-methyl-3H-imidazol4-yl)-methyl]-4-(3-ethynyl-phenyl)-1-methyl-1H-quinolin-2-one on prenylation of K-ras 4B in intact cells is enhanced by a minimally effective dose of lovastatin. Semi-confluent monolayers of the NIH-3T3 tranfectant overexpressing mutant K-ras 4B are treated for 72 hours at 37° C. with increasing concentrations (0, 1.0 μm, 5.0 μm 10.0 μm and 25 μm) of 6-[(4-chloro-phenyl)-hydroxy-(3-methyl-3H-imidazol4-yl)-methyl]4-(3-ethynyl-phenyl)-1-methyl-1H-quinolin-2-one in the presence and absence of 5,M of hydrolysed lovastatin. […] The blots are incubated with peroxidase-conjugated secondary antibody, and the immunoblotted Ras protein are detected by enhanced chemiluminescence (Amersham Life Products, Arlington Heights, Ill.). Percent of prenylated Ras is determined by densitometric scanning using MasterScan 3.0 (Scanalytics, Billerica, Mass.). […]

## C#Cc1cccc(-c2cc(=O)n(C)c3ccc(C(O)(c4ccc(Cl)cc4)c4cncn4C)cc23)c1 (stereo not shown) [6-[(4-chloro-phenyl)-hydroxy-(3-methyl-3H-imidazol4-yl)-methyl]-4-(3-ethynyl-phenyl)-1-methyl-1H-quinolin-2-one]
  effectiveness on the inhibition of prenylation of K-ras 4B in intact cells (percent of prenylated Ras): enhanced
